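How tested: cells in 96-well plates exposed to compound for 48 hours at five concentrations. Abbreviation: GI50, concentration required for 50% inhibition of growth. The concentration for full growth arrest is given as TGI.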
Experiments:
Assay in all cases: inhibition of tumour cell growth, NCI panel, 48 h
M14 melanoma = test system: M14 melanoma
MDA-MB-231 breast = test system: MDA-MB-231 breast
OVCAR-4 ovarian = test system: OVCAR-4 ovarian
SK-MEL-2 melanoma = test system: SK-MEL-2 melanoma
NCI-H522 lung = test system: NCI-H522 lung
MDA-MB-435 = test system: MDA-MB-435
BT-549 breast = test system: BT-549 breast
NCI/ADR-RES ovarian = test system: NCI/ADR-RES ovarian
A498 renal = test system: A498 renal
UACC-62 melanoma = test system: UACC-62 melanoma

Row | Structure (SMILES) | GI50 (M14 melanoma) [µM] | TGI (M14 melanoma) [µM] | GI50 (MDA-MB-231 breast) [µM] | TGI (MDA-MB-231 breast) [µM] | GI50 (OVCAR-4 ovarian) [µM] | TGI (OVCAR-4 ovarian) [µM] | GI50 (SK-MEL-2 melanoma) [µM] | TGI (SK-MEL-2 melanoma) [µM] | GI50 (NCI-H522 lung) [µM] | TGI (NCI-H522 lung) [µM] | GI50 (MDA-MB-435) [µM] | TGI (MDA-MB-435) [µM] | GI50 (BT-549 breast) [µM] | TGI (BT-549 breast) [µM] | GI50 (NCI/ADR-RES ovarian) [µM] | TGI (NCI/ADR-RES ovarian) [µM] | GI50 (A498 renal) [µM] | TGI (A498 renal) [µM] | GI50 (UACC-62 melanoma) [µM] | TGI (UACC-62 melanoma) [µM]
1 | COC(=O)[C@]12CC[C@@H](C)[C@H](C)[C@@H]1C1=CC[C@@H]3[C@@]4(C)CC(=O)[C@H](OC(=O)c5ccco5)[C@@]5(C)COC(=C45)C[C@@]3(C)[C@]1(C)CC2 | 0.654 | > 100 | 5.11 | > 100 | 2.12 | > 100 | 5.63 | > 100 | 3.1 | > 100 | 0.763 | > 100 | 2.91 | > 100 | 6.37 | > 100 | 13.3 | > 100 |  | 
2 | COc1ccc(-c2c(N)n[nH]c2-c2cc(OC)c(OC)c(OC)c2)cc1 | 0.135 | > 100 | 0.56 | > 100 | 1.62 | > 100 | 0.215 | > 100 | 0.223 | 24 | 0.0262 | 0.0907 | 1.41 | > 29 | 0.2 | 2.22 | 0.0549 | 0.615 | 0.14 | > 100
3 | O=C(NCCCCOCC#Cc1ccccc1C#CCS(=O)(=O)c1ccccc1)c1cc2ccccc2[nH]1 | 12.1 | 36.3 | 9.59 | 27.4 | 5.56 | 22.7 | 20.9 | > 50 | 7.79 | 16.4 | 10.6 | 30.3 | 8.38 | > 27.1 | 7.99 | 25 | 25.8 | > 50 | 8.29 | 16.6
4 | O=C1c2ccccc2-c2c1c1ccccc1c(=O)n2-c1ccccc1 |  | > 100 |  | 32.4 |  | 19.2 |  | 50.6 |  | > 100 |  | > 100 |  | > 52 |  | 40.8 |  | 60.7 |  | > 54.2
5 | CCOC(=S)SCN1C(=O)c2ccccc2S1(=O)=O | 16.4 | 33.5 | 19.3 | 40.9 | 1.67 | 3.87 | 44.5 | > 100 | 11.3 | 27.8 | 6.5 | 24.4 | 16 | 38.4 | 14.1 | 50.8 | 19.8 | 42 | 20 | 38
6 | CCCn1c(N)c(C(=O)CNc2ccc(I)cc2)c(=O)[nH]c1=O | > 100 | > 100 | 24.5 | > 100 | > 100 | > 100 | > 100 | > 100 | 16 | > 100 | 6.01 | > 100 | > 64.4 | > 100 | > 25.3 | > 100 | 27.5 | > 100 | 1.15 | > 100
7 | CC(C)(C)C(=O)OCc1nc2cc3c(cc2c(=O)[nH]1)CCC3=O | > 100 | > 100 | > 100 | > 100 | > 100 | > 100 | > 100 | > 100 | > 100 | > 100 | > 100 | > 100 | > 100 | > 100 | > 100 | > 100 | > 100 | > 100 | > 100 | > 100
8 | Cc1c(C(=O)O[C@H]2[C@@H]3[C@H](C)CC[C@H]3[C@]3(C)O[C@@]2(C2CCCCC2)C[C@H]3OC(=O)CO)ccc2ccccc12 | 7.92 | 16.7 | 8 | 16.7 | 7.6 | 14.3 | 9.19 | 16.7 | 7.11 | 13.8 | 8.15 | 15.4 | 5.28 | 12.7 | 5.65 | 12.8 | 0.0173 | 0.144 | 7.97 | 15.1
9 | COc1cc(/C=N\O)nc(-c2ccccn2)c1 |  | > 45 |  | > 100 |  | > 100 |  | > 100 |  | 56.2 |  | > 100 |  | > 100 |  | > 49.6 |  | 9.22 |  | 8.28
10 | Cc1sc2ncn(Cc3ccc(Cl)c(Cl)c3)c(=O)c2c1C | 24.4 | 64 | 24.7 | 77.9 | 28.2 | 68.9 | 27.7 | > 100 | 13.1 | 73.9 | 8.72 | > 100 | 58.9 | > 100 | 27.5 | > 100 | 35.7 | > 100 | 13.2 | > 100
11 | Cc1cc(O)cc2c1c(=O)c1ccccc1n2C |  | > 100 |  | > 100 |  | > 100 |  | > 100 |  | > 100 |  | > 100 |  | > 100 |  | > 100 |  | > 100 |  | > 100
12 | Nc1c(C(=O)Nc2cccc(Br)c2)sc2nc3c(cc12)C(O)CCC3 (stereo unspecified) | 0.36 | > 100 | 2.24 | > 85.7 | 3.14 | 66 | 0.484 | 36.8 | 0.412 | > 67.6 | 0.115 | 0.35 | 0.972 | > 75.3 | 0.435 | > 48.8 | 0.207 | 3.91 | 0.41 | > 94.9
13 | COc1cc(C2c3cc4c(cc3[C@@H](Nc3ccc(N)cc3)C3COC(=O)[C@H]23)OCO4)cc(OC)c1O (stereo partly specified) | 0.652 | 18.6 |  | 34.8 |  | 41.6 |  | 18.9 | 0.789 | 6.57 |  | 29.6 |  | 8.5 |  | 44.5 | 0.781 | 6.39 | 0.711 | 11.3
14 | Cc1ncc([N+](=O)[O-])n1CCNC(=O)CCCCCn1ccnc1[N+](=O)[O-] |  | > 100 |  | > 100 |  |  |  | > 100 |  | > 100 |  | > 100 |  | > 100 |  | > 100 |  | > 100 |  | > 100

Source: PubChem BioAssay (NCI)
